Source: US5552156A, “Liposomal and micellular stabilization of camptothecin drugs” (Ohio State University, priority 1995, dated 1996)

Tests used:
[1] = Relative lipophilicity of camptothecin drugs; conditions: among drugs of Table V
[2] = Excited-state lifetime of camptothecin; type: physicochemical; conditions: for excited state-lifetime: 37° C.
Description: The excited state-lifetime values of camptothecin free in solution was measured in PBS, glycerol, and methanol at 37° C. The lifetime values are 4.7 ns, 3.8 ns, and 3.5 ns, respectively. The average excited state-lifetime value of camptothecin when bound to DMPC liposome membrane is 3.7 ns. The measurements indicate that the excited-state lifetime of camptothecin is relatively insensitive to changes in solvent environment or to changes due to relocation of camptothecin from an aqueous environment to the lipid liposome membrane.
The picosecond fluorescence experiment were carried out with a Piridine I cavity dumped dye laser and frequency doubled light […]. The lifetime and correlation time were measured using frequency domain fluorometer operating up 10 GHz (Laczko et al., Rev. Sci. Instrum. 61: 2331, (1990)). The modulated exited light was obtained from the harmonic content of a laser pulse train with a repetition rate of 3.81 MHz and a pulse width of 5 ps. A mode locked […] Antares laser was used to pump the dye laser. The emission was observed through the cut of the filter […] by microchannel photomultiplier. The cross-correlation detection was done outside the photomultiplier tube, according to Laczko et al., Rev, Sci. Instrum. 61: 2331 (1990).

[3] = system: lung, breast, and malignant melanoma; conditions: background; cited from earlier work

CCC1(O)C(=O)OCc2c1cc1n(c2=O)Cc2cc3c(Cl)c4c(cc3nc2-1)OCO4 (stereo not drawn) [9-chloro-10,11-methylenedioxycamptothecin]
relative lipophilicity [1]: most lipophilic

CC[C@@]1(O)C(=O)OCc2c1cc1n(c2=O)Cc2cc3ccccc3nc2-1 [camptothecin]
excited state-lifetime ([2]; PBS): 4.7 ns
average excited state-lifetime ([2]; bound to DMPC liposome membrane): 3.7 ns
excited state-lifetime ([2]; glycerol): 3.8 ns
excited state-lifetime ([2]; methanol): 3.5 ns
effectiveness against other experimental cancer types [3]: effective against other experimental cancer types such as lung, breast, and malignant melanoma
